Measurements published in US20240189408A1, “COMPOSITIONS AND METHODS FOR REDUCING METHANE EMISSIONS IN RUMINANT POPULATIONS” (Arkea Bio Corp., priority 2022, published 2024).
Where “and” joins values, the source holds several entries; their conditions need not be identical. Identical values can stand only once. Like-named read-outs stand apart in the source and are kept apart here.

Key:
[1] = Adsorbent study: binding affinity and adsorptive capacity for 3-NOP, HPLC at 230 nm
Procedure: The solution was then placed in an ultrasonic bath for ˜4 hr and then allowed to equilibrate over 24h.

[2] = system: Methanosarcina mazei; conditions: cited from earlier work
[3] = system: Methanomicrobium mobile; conditions: cited from earlier work
[4] = system: Mbb. Ruminantium; conditions: cited from earlier work
[5] = system: rumen methanogens; conditions: cited from earlier work
[6] = system: rumen methanogens; conditions: sheep, cited from earlier work
[7] = system: methane production in ruminants; conditions: 10 mmol/L; cited from earlier work
[8] = 3-NOP to adsorbent ratio study; assay type: physicochemical; conditions: 24 hr, HPLC
Procedure: Optimal loading of 3-NOP onto adsorbents was determined by varying ratios of 3-NOP to adsorbent. 3-NOP and adsorbent were speed mixed at 2000 rpm for 1 min at the following ratios by weight: 1:1.5, 1:2, 1:2.5. The adsorbed 3-NOP powder mixture was then placed in distilled water at 1% 3-NOP loading. The solution was allowed to equilibrate for 24 hr and then an aliquot was taken for HPLC to determine the reduction in 3-NOP concentration.

[9] = LNP encapsulation efficiency, RiboGreen assay; assay type: physicochemical
Procedure, shortened: (§1)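 LNPs were made from mRNA at 0.35 mg/mL with Genvoy-ILM on a NanoAssemblr Ignite, dialysed into Ca/Mg-free DPBS to <0.5% ethanol and 0.2 µm filtered. Size and polydispersity were measured by DLS after 1:10 dilution in DPBS. Encapsulation efficiency was determined by RiboGreen assay per Precision Nanosystems protocol.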

[10] = system: ovalbumin (OVA); experiment: OVA-specific IgG ELISA of sera after IM or SQ vaccination; assay type: in vivo, dairy cows; conditions: for OVA-specific IgG, Absorbance (OD450): one line per animal replicate
Procedure: (§2) Bovine nucleic acid vaccination protocols (SQ and IM) were assessed in vivo in the dairy cows through the quantification of the adaptive immune response following inoculation with ovalbumin (OVA). Immune response was assessed by quantifying total IgG and OVA-specific IgG over a 28-day period after vaccination. Both SQ and IM vaccination provided a robust immune response, with IM vaccination providing a higher total immune response than SQ vaccination.
(§3) Dairy cows were dried off for a period of eight days prior to vaccination. Each vaccine formulation was administered either by IM or SQ injection to three animals. In total, 15 animals were vaccinated with LNPs containing mRNA and 6 animals were vaccinated with empty LNPs. Intramuscular injections were delivered into the cow's right neck muscle by veterinary-trained staff using an 18-gauge 1-1.5″ needle. Subcutaneous injections were delivered into the cow's right shoulder by veterinary-trained staff using an 18-gauge 0.5-0.75″ needle. Total blood samples (˜20 mL) were collected by veterinary-trained staff. Samples were collected into 10 mL vacutainer tubes (2×10 mL) from the coccygeal vein (tail vein) by needle puncture. Harvested blood samples were then processed via ultracentrifugation for serum collection. Isolated serum samples were aliquoted, labeled and stored in cryogenic tubes at −20° C. until use.
Sera samples were thawed on ice and total IgG was quantified using NovateinBio's Bovine OVA sIgG Antibody ELISA Kit (Cat No. BG-BVN11731) following the manufacturer's recommended protocol. Each of the animals vaccinated with a construct show a demonstrable OVA-specific IgG response over the 28-day test period.

[11] = LNP size and polydispersity by DLS (Malvern Panalytical); assay type: physicochemical
Procedure, shortened: as §1

[12] = system: total IgG; experiment: Total sera IgG by radial immunodiffusion after IM or SQ vaccination with OVA mRNA LNPs; assay type: in vivo, dairy cows; conditions: for Serum IgG Concentration: one line per animal replicate
Procedure: as §2, §3
Sera samples were thawed on ice and total IgG was quantified using Triple J Farms' Ig Radial Immunodiffusion (RID) kits (Cat No. 728411) following the manufacturers recommended protocol.

[13] = 0.2 g of adsorbent in 10 mL of 1% 3-NOP/H2O, after 24h, control 8.258 mM
[14] = 0.06 to 0.24 mmol/L, dose-dependent

## NC(=O)CC[C@H](N)C(=O)O [Glutamine]
[1]; [13]
  3-NOP concentration: 7.588 mM

## Cyclodextrin
[1]; [13]
  3-NOP concentration: 7.676 mM

## O=S(=O)([O-])[O-].[Cu+2] [Copper Sulfate]
[1]; [13]
  3-NOP concentration: 7.814 mM

## CC#CC(=O)OCC [ethyl 2-butynoate]
[2]; pure cultures
  sensitivity to the inhibitor, ranking of three species: least sensitive
[3]; pure cultures
  sensitivity to the inhibitor, ranking of three species: intermediate
[4]; pure cultures
  sensitivity to the inhibitor, ranking of three species: most sensitive

## C[N+](C)(C)CC(=O)O [Betaine]
[1]; [13]
  3-NOP concentration: 7.202 mM

## Nisin
[5]
  suppression of CH4 in vitro: up to 40%

## O=C([O-])CC(O)(CC(=O)[O-])C(=O)[O-].[Bi+3] [Bismuth Citrate]
[1]; [13]
  3-NOP concentration: 8.072 mM

## CC[N+](=O)[O-] [nitroethane]
[6]; orally 24 mg/kg body weight daily for 5 days
  decrease of CH4 production: up to 45%
[6]; orally 72 mg/kg body weight daily for 5 days
  decrease of CH4 production: ≤ 69%
[7]
  Addition amount; maximum methane suppression amount: 10 mmol/L; 96.7% (NE),

## 3-bromopropanesulfonate [BPS]
[2]; pure cultures
  concentration up to which the species appeared resistant: 250 µmol/L
[3]; pure cultures
  concentration up to which the species appeared resistant: 250 µmol/L
[4]; pure cultures
  concentration up to which the species appeared resistant: 250 µmol/L

## O=c1[nH]c(=O)c2nccnc2[nH]1 [lumazin, 2,4-pteridinedione]
[2]; [14]
  CH4 production: significantly decreased
[3]; [14]
  CH4 production: significantly decreased
[4]; [14]
  CH4 production: significantly decreased

## Catechin
[5]
  CH4 production: decreased CH4 production both in vitro and in vivo

## O=S(=O)([O-])[O-].O=S(=O)([O-])[O-].O=S(=O)([O-])[O-].[Bi+3].[Bi+3] [Bismuth Sulfate]
[1]; [13]
  3-NOP concentration: 8.079 mM

## NCCCC[C@H](N)C(=O)O [Lysine]
[1]
  3-NOP concentration: 18.583 mM
[8]; 3-NOP:Adsorbent 1:1.5, distilled water at 1% 3-NOP loading
  Average Integrated Area of 3-NOP in solution: 2336.2
[8]; 3-NOP:Adsorbent 1:2, distilled water at 1% 3-NOP loading
  Average Integrated Area of 3-NOP in solution: 2308.9
[8]; 3-NOP:Adsorbent 1:2.5, distilled water at 1% 3-NOP loading
  Average Integrated Area of 3-NOP in solution: 2266.6

## CC[C@H](C)C(=O)O[C@H]1C[C@@H](C)C=C2C=C[C@H](C)[C@H](CC[C@@H]3C[C@@H](O)CC(=O)O3)[C@H]21 [lovastatin]
[5]; extracted from fermented rice straw, after 48 h in vitro incubation
  reduction of total CH4 production by rumen methanogens: ~28%
[5]; rumen simulation technique (Rusitec), 150 mg/L
  reduction of CH4 production: approximately 42%

## C#CC(=O)O [propynoic acid]
[2]; pure cultures
  sensitivity to the inhibitor, ranking of three species: least sensitive
[3]; pure cultures
  sensitivity to the inhibitor, ranking of three species: intermediate
[4]; pure cultures
  sensitivity to the inhibitor, ranking of three species: most sensitive
[5]; 6 mmol/L
  lowering of CH4 production: 67%
[5]; 12 mmol/L
  lowering of CH4 production: 78%

## Bovicin HC5
[5]
  suppression of CH4 in vitro: 50%

## O=S(=O)([O-])CCBr.[Na+] [BES, 2-bromoethanesulfonate]
[2]; pure cultures
  sensitivity to the inhibitor, ranking of three species: least sensitive
[3]; pure cultures
  sensitivity to the inhibitor, ranking of three species: intermediate
[4]; pure cultures
  sensitivity to the inhibitor, ranking of three species: most sensitive

B1: ARK015: mRNA: OVA + STOP, cytosolic OVA; SEQ ID NO: 16675 (nucleic acid)
chain: ATGTTCGTGTTCCTCGTGCTCCTGCCCCTCGTCTCCAGCCAGTGCGTGGGGTCCATAGGGGCTGCTTCTATGGAGTTCTGTTTTGATGTTTTCAAGGAACTGAAGGTTCACCATGCTAACGAGAACATCTTTTACTGTCCAATAGCCATCATGAGTGCGCTTGCTATGGTTTATTTGGGTGCAAAAGATTCTACTCGCACTCAGATTAATAAGGTCGTTAGATTCGACAAGCTTCCAGGGTTTGGAGACAGTATTGAGGCCCAATGTGGAACGTCAGTCAACGTCCATTCTTCTCTGCGGGACATTCTCAACCAAATAACGAAGCCAAACGACGTGTATTCCTTCTCACTCGCGTCACGGCTGTATGCTGAAGAAAGGTATCCTATCTTGCCAGAATATCTCCAGTGCGTCAAGGAGTTGTATCGAGGCGGACTGGAACCGATCAACTTTCAGACTGCAGCCGACCAGGCCCGCGAACTGATCAACAGCTGGGTCGAGTCTCAGACCAATGGGATCATACGCAATGTGTTGCAACCGAGTAGTGTCGACTCTCAGACGGCTATGGTCTTGGTGAACGCTATAGTCTTCAAAGGTCTGTGGGAGAAGACCTTCAAGGATGAAGACACACAAGCGATGCCATTCAGAGTCACCGAACAAGAAAGCAAACCCGTCCAAATGATGTACCAAATTGGGCTTTTTCGGGTGGCCTCTATGGCCTCTGAGAAAATGAAAATATTGGAACTGCCCTTCGCCAGCGGCACAATGAGTATGTTGGTCCTTCTTCCAGATGAAGTCTCAGGTCTCGAACAGCTTGAGTCTATCATTAACTTTGAGAAACTCACTGAATGGACTTCTTCCAATGTGATGGAAGAACGAAAAATCAAAGTCTACCTGCCCCGAATGAAGATGGAAGAGAAATATAATTTGACATCAGTTCTGATGGCCATGGGAATCACAGACGTGTTTTCATCCTCTGCGAATCTGTCTGGCATATCTTCCGCAGAATCTCTCAAGATCAGTCAAGCCGTCCACGCGGCCCATGCTGAGATAAATGAGGCGGGCAGAGAGGTGGTGGGGTCCGCCGAAGCTGGAGTCGACGCAGCTTCTGTCAGTGAAGAATTTAGGGCCGATCATCCTTTCCTGTTCTGCATAAAGCACATAGCTACGAACGCTGTGCTTTTCTTTGGCAGATGCGTTTCTCCATGA
modifications: listed as DNA
[9]; mRNA LNPs of Table 18
  Encapsulation efficiency: 62%
[9]; mRNA LNPs, Example 6
  Encapsulation efficiency: 84%
[10]; IM injection, Day 0, dairy cows
  OVA-specific IgG, Absorbance (OD450): 0.842 OD450 and 0.938 OD450 and 0.308 OD450
[10]; IM injection, Day 14, dairy cows
  OVA-specific IgG, Absorbance (OD450): 1.653 OD450 and 1.048 OD450 and 0.513 OD450
[10]; IM injection, Day 21, dairy cows
  OVA-specific IgG, Absorbance (OD450): 1.23 OD450 and 1.261 OD450 and 0.443 OD450
[10]; IM injection, Day 28, dairy cows
  OVA-specific IgG, Absorbance (OD450): 1.097 OD450 and 0.999 OD450 and 0.465 OD450
[10]; SQ injection, Day 0, dairy cows
  OVA-specific IgG, Absorbance (OD450): 1.394 OD450 and 1.327 OD450 and 3.178 OD450
[10]; SQ injection, Day 14, dairy cows
  OVA-specific IgG, Absorbance (OD450): 1.287 OD450 and 1.175 OD450 and 2.478 OD450
[10]; SQ injection, Day 21, dairy cows
  OVA-specific IgG, Absorbance (OD450): 1.504 OD450 and 1.277 OD450 and 1.985 OD450
[10]; SQ injection, Day 28, dairy cows
  OVA-specific IgG, Absorbance (OD450): 1.368 OD450 and 1.066 OD450 and 1.691 OD450
[10]; dairy cows, FIG. 10
  OVA-specific IgG response, intramuscular as compared to subcutaneous injection: ~4 fold
[11]; LNP polydispersity, mRNA LNPs of Table 18
  PDI: 0.130
[11]; LNP size, mRNA LNPs of Table 18
  Z-avg.: 68.06 nm·days
[11]; mRNA LNPs, Example 6
  PDI: 0.1705
  Z-avg.: 96.66 nm·days
[12]; IM injection, Day 0, dairy cows, dose 348-468 ug
  Serum IgG Concentration: 3,658 mg/dL and 4,086 mg/dL and 3,167 mg/dL
[12]; IM injection, Day 14, dairy cows, dose 348-468 ug
  Serum IgG Concentration: 3,692 mg/dL and 5,735 mg/dL and 3,947 mg/dL
[12]; IM injection, Day 21, dairy cows, dose 348-468 ug
  Serum IgG Concentration: 4,070 mg/dL and 2,488 mg/dL and 3,797 mg/dL
[12]; IM injection, Day 28, dairy cows, dose 348-468 ug
  Serum IgG Concentration: 3,272 mg/dL and 4,153 mg/dL and 2,723 mg/dL
[12]; SQ injection, Day 0, dairy cows, dose 353-468 ug
  Serum IgG Concentration: 4,875 mg/dL and 3,680 mg/dL and 2,964 mg/dL
[12]; SQ injection, Day 14, dairy cows, dose 353-468 ug
  Serum IgG Concentration: 5,972 mg/dL and 3,257 mg/dL and 3,894 mg/dL
[12]; SQ injection, Day 21, dairy cows, dose 353-468 ug
  Serum IgG Concentration: 5,722 mg/dL and 3,149 mg/dL and 3,981 mg/dL
[12]; SQ injection, Day 28, dairy cows, dose 353-468 ug
  Serum IgG Concentration: 4,015 mg/dL and 3,009 mg/dL and 2,221 mg/dL
[12]; dairy cows, 3 animals per construct, 28-day test period, FIG. 9
  total sera IgG immune response, treated groups normalized against the empty groups: detectable immune response in at least one of the treated animals
